Results reported in patent US20240207292A1, “BORONIC ACID COMPOUNDS, COMPOSITIONS AND METHODS” (Trustees of Tufts College, priority 2021, published 2024).

Test: Stability of 6555 with stabilizers over hours without AAPH (50 mM NH4OAc at RT or Ultrapura water at 40° C.)
Type: physicochemical
Source text: The effect of specified sulfur-containing compounds and other stabilizer compounds (including non-sulfur-containing stabilizer compounds) and mixtures of sulfur-containing compounds and non-sulfur-containing stabilizer compounds with the boronic acid compound 6555 (structure shown above) at various pH values.

- 6555 Remaining (%) (50 mM NH4OAc, RT, 6 hr, (−) mode, no stabilizer, pH 5.4): 74.5%
- 6555 Remaining (%) (50 mM NH4OAc, RT, 6 hr, (−) mode, sodium metabisulfite 5 mM, pH 5.1): 63.3%
- 6555 Remaining (%) (50 mM NH4OAc, RT, 7 hr, (−) mode, sodium ascorbate 5 mM, sodium gentisate 2 mM, sodium metabisulfite 5 mM, disodium hydrosulfite 5 mM, pH 5.2): 77.4%
- 6555 Remaining (%) (50 mM NH4OAc, RT, 7 hr, (−) mode, sodium metabisulfite 5 mM, disodium hydrosulfite 5 mM, pH 5.1): 66.9%
- 6555 Remaining (%) (50 mM NH4OAc, RT, 8 hr, (−) mode, NAM 5 mM, sodium metabisulfite 5 mM, pH 4.9): 63.2%
- 6555 Remaining (%) (50 mM NH4OAc, RT, 8 hr, (−) mode, sodium metabisulfite 25 mM, pH 4.2): 63.2%
- 6555 Remaining (%) (50 mM NH4OAc, RT, 26 hr, (+) mode, no stabilizer, pH 5.4): 95.7%
- 6555 Remaining (%) (50 mM NH4OAc, RT, 26 hr, (+) mode, sodium ascorbate 5 mM, sodium gentisate 2 mM, sodium metabisulfite 5 mM, disodium hydrosulfite 5 mM, pH 5.2): 96.7%
- 6555 Remaining (%) (50 mM NH4OAc, RT, 31 hr, (−) mode, no stabilizer, pH 5.4): 82.2%
- 6555 Remaining (%) (50 mM NH4OAc, RT, 31 hr, (−) mode, sodium ascorbate 5 mM, sodium gentisate 2 mM, sodium metabisulfite 5 mM, disodium hydrosulfite 5 mM, pH 5.2): 77.4%
- 6555 Remaining (%) (Ultrapura water, 40° C., 17 hr, (+) mode, no stabilizer, pH 5.2): 95.4%
- 6555 Remaining (%) (Ultrapura water, 40° C., 17 hr, (+) mode, sodium ascorbate 5 mM, sodium gentisate 2 mM, sodium metabisulfite 5 mM, disodium hydrosulfite 5 mM, pH 5): 96.1%
- 6555 Remaining (%) (Ultrapura water, 40° C., 18 hr, (+) mode, sodium ascorbate 5 mM, sodium gentisate 2 mM, NAM 5 mM, disodium hydrosulfite 5 mM, pH 5.0): 96.2%
- 6555 Remaining (%) (Ultrapura water, 40° C., 18 hr, (+) mode, sodium ascorbate 5 mM, sodium gentisate 2 mM, NAM 5 mM, sodium metabisulfite 5 mM, pH 5.1): 95.6%
- 6555 Remaining (%) (Ultrapura water, 40° C., 27 hr, (−) mode, sodium ascorbate 5 mM, sodium gentisate 2 mM, NAM 5 mM, disodium hydrosulfite 5 mM, pH 5.0): 85.3%
- 6555 Remaining (%) (Ultrapura water, 40° C., 27 hr, (−) mode, sodium ascorbate 5 mM, sodium gentisate 2 mM, NAM 5 mM, sodium metabisulfite 5 mM, pH 5.1): 92.8%
- 6555 Remaining (%) (Ultrapura water, 40° C., 28 hr, (−) mode, no stabilizer, pH 5.2): 83.7%
- 6555 Remaining (%) (Ultrapura water, 40° C., 28 hr, (−) mode, sodium ascorbate 5 mM, sodium gentisate 2 mM, sodium metabisulfite 5 mM, disodium hydrosulfite 5 mM, pH 5.0): 82.9%
- 6555 Remain (%) (mM: ascorbate 0, gentisate 0, NAM 0, metabisulfite 0, hydrosulfite 0, pH 5.2, 17 hrs, SID 90754): 95.4%
- 6555 Remain (%) (mM: ascorbate 0, gentisate 0, NAM 0, metabisulfite 0, hydrosulfite 0, pH 5.2, 28 hrs, SID 90768): 83.7%
- 6555 Remain (%) (mM: ascorbate 0, gentisate 0, NAM 0, metabisulfite 0, hydrosulfite 0, pH 5.4, 6 hrs, SID 90779): 74.5%
- 6555 Remain (%) (mM: ascorbate 0, gentisate 0, NAM 0, metabisulfite 0, hydrosulfite 0, pH 5.4, 26 hrs, SID 90844): 95.7%
- 6555 Remain (%) (mM: ascorbate 0, gentisate 0, NAM 0, metabisulfite 0, hydrosulfite 0, pH 5.4, 31 hrs, SID 90853): 82.2%
- 6555 Remain (%) (mM: ascorbate 0, gentisate 0, NAM 0, metabisulfite 5, hydrosulfite 0, pH 4.9, 8 hrs, SID 90787): 63.2%
- 6555 Remain (%) (mM: ascorbate 0, gentisate 0, NAM 0, metabisulfite 5, hydrosulfite 0, pH 5.1, 6 hrs, SID 90780): 63.3%
- 6555 Remain (%) (mM: ascorbate 0, gentisate 0, NAM 0, metabisulfite 5, hydrosulfite 5, pH 5.1, 7 hrs, SID 90783): 66.9%
- 6555 Remain (%) (mM: ascorbate 0, gentisate 0, NAM 0, metabisulfite 25, hydrosulfite 0, pH 4.2, 8 hrs, SID 90790): 63.2%
- 6555 Remain (%) (mM: ascorbate 5, gentisate 2, NAM 0, metabisulfite 5, hydrosulfite 5, pH 5, 17 hrs, SID 90756): 96.1%
- 6555 Remain (%) (mM: ascorbate 5, gentisate 2, NAM 0, metabisulfite 5, hydrosulfite 5, pH 5, 28 hrs, SID 90772): 82.9%
- 6555 Remain (%) (mM: ascorbate 5, gentisate 2, NAM 0, metabisulfite 5, hydrosulfite 5, pH 5.2, 7 hrs, SID 90786): 77.4%
- 6555 Remain (%) (mM: ascorbate 5, gentisate 2, NAM 0, metabisulfite 5, hydrosulfite 5, pH 5.2, 26 hrs, SID 90845): 96.7%
- 6555 Remain (%) (mM: ascorbate 5, gentisate 2, NAM 0, metabisulfite 5, hydrosulfite 5, pH 5.2, 31 hrs, SID 90854): 77.4%
- 6555 Remain (%) (mM: ascorbate 5, gentisate 2, NAM 5, metabisulfite 0, hydrosulfite 5, pH 5.0, 18 hrs, SID 90755): 96.2%
- 6555 Remain (%) (mM: ascorbate 5, gentisate 2, NAM 5, metabisulfite 0, hydrosulfite 5, pH 5.0, 27 hrs, SID 90771): 85.3%
- 6555 Remain (%) (mM: ascorbate 5, gentisate 2, NAM 5, metabisulfite 5, hydrosulfite 0, pH 5.1, 18 hrs, SID 90753): 95.6%
- 6555 Remain (%) (mM: ascorbate 5, gentisate 2, NAM 5, metabisulfite 5, hydrosulfite 0, pH 5.1, 27 hrs, SID 90769): 92.8%
Structure (SMILES): C[C@@H](NC(=O)c1ccc(CNC(=O)CN2CCN(CC(=O)O)CCN(CC(=O)O)CCN(CC(=O)O)CC2)cc1)C(=O)N1CCC[C@H]1B(O)O [compound 6555, DOTA-aminomethyl-Bz-D-Ala-boroPro]
